Source: paper PMC8037182, “Solvothermal Synthesis of Multiple Dihydropyrimidinones at a Time as Inhibitors of Eg5” (Molecules, 2021)

Tested on: Caco-2 cell line
Experiment: Cytotoxicity MTS assay, Caco-2 cell line
Type: cell-based
Conditions: for OD490 Mean / OD490 Well 1 / OD490 Well 2 / OD490 Well 3: Caco-2 cell line
Method in brief: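 Growth inhibition is measured by MTS conversion, read as absorbance at 490 nm after 2 h at 37 °C. Compounds act on cells seeded at 1000/well for 24 h across 0.5–100 µM final. Data derive from three independent duplicate experiments.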

**Q.** With `CCOC(=O)C1=C(C)NC(=S)NC1c1cccc(O)c1` (stereo not shown) [Monastrol, monastrol, reference compound] as the compound, how does the “OD490 Mean” value (0.5μM, first assay) read?
**A.** Its value is 0.6317.

**Q.** And the “OD490 Well 1” value (0.5μM, first assay)?
**A.** The value was 0.6883.

**Q.** And the “OD490 Well 2” value (0.5μM, first assay)?
**A.** The value was 0.6260.

**Q.** What about the “OD490 Well 3” value (0.5μM, first assay) of the same compound?
**A.** Its value is 0.5808.

**Q.** What about the “OD490 Mean” value (0.5μM, second assay) of the same compound?
**A.** The value was 0.6461.

**Q.** And the “OD490 Well 1” value (0.5μM, second assay)?
**A.** Its value is 0.6307.

**Q.** And the “OD490 Well 2” value (0.5μM, second assay)?
**A.** The value was 0.6567.

**Q.** And the “OD490 Well 3” value (0.5μM, second assay)?
**A.** The value was 0.6508.

**Q.** What about the “OD490 Mean” value (0.5μM, third assay) of the same compound?
**A.** Its value is 0.6299.

**Q.** What about the “OD490 Well 1” value (0.5μM, third assay) of the same compound?
**A.** The value was 0.6325.

**Q.** What about the “OD490 Well 2” value (0.5μM, third assay) of the same compound?
**A.** Its value is 0.6000.

**Q.** And the “OD490 Well 3” value (0.5μM, third assay)?
**A.** Its value is 0.6531.

**Q.** What about the “OD490 Mean” value (1μM, first assay) of the same compound?
**A.** The value was 0.6316.

**Q.** What about the “OD490 Well 1” value (1μM, first assay) of the same compound?
**A.** The value was 0.6697.

**Q.** What about the “OD490 Well 2” value (1μM, first assay) of the same compound?
**A.** The value was 0.6037.

**Q.** What about the “OD490 Well 3” value (1μM, first assay) of the same compound?
**A.** The value was 0.6213.

**Q.** And the “OD490 Mean” value (1μM, second assay)?
**A.** The value was 0.6874.

**Q.** And the “OD490 Well 1” value (1μM, second assay)?
**A.** Its value is 0.6746.

**Q.** And the “OD490 Well 2” value (1μM, second assay)?
**A.** Its value is 0.7532.

**Q.** What about the “OD490 Well 3” value (1μM, second assay) of the same compound?
**A.** The value was 0.6345.

**Q.** And the “OD490 Mean” value (1μM, third assay)?
**A.** Its value is 0.6466.

**Q.** And the “OD490 Well 1” value (1μM, third assay)?
**A.** The value was 0.6332.

**Q.** And the “OD490 Well 2” value (1μM, third assay)?
**A.** Its value is 0.6854.

**Q.** What about the “OD490 Well 3” value (1μM, third assay) of the same compound?
**A.** The value was 0.6211.

**Q.** And the “OD490 Mean” value (10μM, first assay)?
**A.** The value was 0.6065.

**Q.** What about the “OD490 Well 1” value (10μM, first assay) of the same compound?
**A.** Its value is 0.6414.

**Q.** What about the “OD490 Well 2” value (10μM, first assay) of the same compound?
**A.** The value was 0.6303.

**Q.** What about the “OD490 Well 3” value (10μM, first assay) of the same compound?
**A.** Its value is 0.5477.

**Q.** What about the “OD490 Mean” value (10μM, second assay) of the same compound?
**A.** Its value is 0.6609.

**Q.** And the “OD490 Well 1” value (10μM, second assay)?
**A.** The value was 0.6953.

**Q.** What about the “OD490 Well 2” value (10μM, second assay) of the same compound?
**A.** The value was 0.6962.

**Q.** What about the “OD490 Well 3” value (10μM, second assay) of the same compound?
**A.** Its value is 0.5912.

**Q.** And the “OD490 Mean” value (10μM, third assay)?
**A.** The value was 0.5909.

**Q.** And the “OD490 Well 1” value (10μM, third assay)?
**A.** Its value is 0.6012.

**Q.** What about the “OD490 Well 2” value (10μM, third assay) of the same compound?
**A.** Its value is 0.6583.

**Q.** What about the “OD490 Well 3” value (10μM, third assay) of the same compound?
**A.** The value was 0.5132.

**Q.** And the “OD490 Mean” value (25μM, first assay)?
**A.** The value was 0.5366.

**Q.** What about the “OD490 Well 1” value (25μM, first assay) of the same compound?
**A.** The value was 0.5485.

**Q.** What about the “OD490 Well 2” value (25μM, first assay) of the same compound?
**A.** The value was 0.5284.

**Q.** And the “OD490 Well 3” value (25μM, first assay)?
**A.** The value was 0.5329.

**Q.** What about the “OD490 Mean” value (25μM, second assay) of the same compound?
**A.** The value was 0.5966.

**Q.** And the “OD490 Well 1” value (25μM, second assay)?
**A.** The value was 0.5969.

**Q.** What about the “OD490 Well 2” value (25μM, second assay) of the same compound?
**A.** Its value is 0.6213.

**Q.** What about the “OD490 Well 3” value (25μM, second assay) of the same compound?
**A.** Its value is 0.5715.

**Q.** And the “OD490 Mean” value (25μM, third assay)?
**A.** Its value is 0.5678.

**Q.** What about the “OD490 Well 1” value (25μM, third assay) of the same compound?
**A.** Its value is 0.5784.

**Q.** What about the “OD490 Well 2” value (25μM, third assay) of the same compound?
**A.** Its value is 0.5810.

**Q.** And the “OD490 Well 3” value (25μM, third assay)?
**A.** Its value is 0.5439.

**Q.** What about the “OD490 Mean” value (50μM, first assay) of the same compound?
**A.** Its value is 0.4955.

**Q.** And the “OD490 Well 1” value (50μM, first assay)?
**A.** The value was 0.4127.

**Q.** And the “OD490 Well 2” value (50μM, first assay)?
**A.** The value was 0.5627.

**Q.** What about the “OD490 Well 3” value (50μM, first assay) of the same compound?
**A.** Its value is 0.5110.

**Q.** And the “OD490 Mean” value (50μM, second assay)?
**A.** Its value is 0.5572.

**Q.** What about the “OD490 Well 1” value (50μM, second assay) of the same compound?
**A.** The value was 0.594.

**Q.** And the “OD490 Well 2” value (50μM, second assay)?
**A.** Its value is 0.5177.

**Q.** What about the “OD490 Well 3” value (50μM, second assay) of the same compound?
**A.** The value was 0.5598.

**Q.** And the “OD490 Mean” value (50μM, third assay)?
**A.** The value was 0.5174.

**Q.** And the “OD490 Well 1” value (50μM, third assay)?
**A.** Its value is 0.5287.

**Q.** What about the “OD490 Well 2” value (50μM, third assay) of the same compound?
**A.** The value was 0.5021.

**Q.** And the “OD490 Well 3” value (50μM, third assay)?
**A.** The value was 0.5214.

**Q.** And the “OD490 Mean” value (100μM, first assay)?
**A.** The value was 0.4461.

**Q.** What about the “OD490 Well 1” value (100μM, first assay) of the same compound?
**A.** The value was 0.4497.

**Q.** And the “OD490 Well 2” value (100μM, first assay)?
**A.** The value was 0.4701.

**Q.** What about the “OD490 Well 3” value (100μM, first assay) of the same compound?
**A.** Its value is 0.4184.

**Q.** What about the “OD490 Mean” value (100μM, second assay) of the same compound?
**A.** The value was 0.5109.

**Q.** What about the “OD490 Well 1” value (100μM, second assay) of the same compound?
**A.** Its value is 0.5213.

**Q.** And the “OD490 Well 2” value (100μM, second assay)?
**A.** Its value is 0.5306.

**Q.** And the “OD490 Well 3” value (100μM, second assay)?
**A.** Its value is 0.4809.

**Q.** What about the “OD490 Mean” value (100μM, third assay) of the same compound?
**A.** Its value is 0.4670.

**Q.** And the “OD490 Well 1” value (100μM, third assay)?
**A.** The value was 0.4321.

**Q.** What about the “OD490 Well 2” value (100μM, third assay) of the same compound?
**A.** Its value is 0.4767.

**Q.** And the “OD490 Well 3” value (100μM, third assay)?
**A.** The value was 0.4922.

**Q.** What about the IC50 (Homo sapiens, Caco-2, MTS assay, 24 h exposure) of the same compound?
**A.** The IC50 was 112 µM.
